Source: patent US20220117895A1, “PREPARING LIPOSOMES WITH HIGH DRUG LOADING CAPACITY AND THE USE THEREOF” (Purdue Research Foundation, priority 2019, published 2022)

What was measured:
[1] = pKa and ionization of drug; format: physicochemical; conditions: internal pH 3.6
Huh7 cells [2] = assay: Cellular uptake of drug-loaded liposomes, quantitative analysis; format: cell-based, human; conditions: Huh7, 50 μM Dox equivalent; evident at 3, 6 and 12 h
Procedure: Huh7 Cells were seeded in a 12 well plate at a density of 10^5 cells per well. After overnight incubation, the cells were treated with LRHG, LRSG, or free Gem at a concentration equivalent to 50 μM Gem, or with LRD or free Dox at a concentration equivalent to 50 μM Dox. At 3, 6, 12, and 24 h post-treatment, the cells were rinsed twice with cold PBS, trypsinized and collected by centrifugation at 233 rcf. The cell pellets were suspended in PBS and lysed by three cycles of freezing and thawing followed by probe sonication. The protein content in each cell lysate was measured by micro BCA assay. A hundred microliters of cell lysate was mixed with 200 μL of acetonitrile, bath sonicated for 1 h, and centrifuged at 16100 rcf for 30 min to separate a supernatant. The supernatant was evaporated under vacuum overnight and reconstituted in 100 μL of PBS. Dox was detected by the microplate reader at λEx/λEm of 488 nm/580 nm. dFdCTP was detected by HPLC using a 64:36 v/v mixture of two aqueous mobile phases: (i) KH2PO4 10 mM, tetra butyl ammonium bromide (TBABr) 10 mM, pH 7 and 0.25% methanol and (ii) KH2PO4 250 mM, TBABr 10 mM, pH 7 and 15% methanol, run at 1.2 mL/min, and a detection wavelength of 271 nm.

[3] = cited from earlier work
[4] = system: Huh7 human hepatocellular carcinoma cells; assay: Cytotoxicity of drug-loaded liposomes (MTT); format: cell-based
Procedure: Huh7 human hepatocellular carcinoma cells (donation of Prof. Wanqing Liu) were cultured in RPMI-1640 medium complemented with 10% FBS, 100 U/mL penicillin, and […] streptomycin at 37° C. in a humidified 5% CO2 atmosphere. Huh7 cells were seeded in a 96 well plate at a density of 10,000 cells per well and grown to 70% confluence. Huh7 cells were exposed to free drug or liposomal preparations for 3 or 6 h. The cells were rinsed twice with fresh medium and kept in drug-free medium for 72 h. In another experiment, Huh7 cells were incubated with a free Gem, LRSG, LRHG, free Dox, LRD, blank liposomes, free drug mixture, or liposome mixture for 72 h. The medium was then removed, and 15 μL of 5 mg/mL MTT solution and 100 μL media were added to each well and incubated for 4 h at 37° C. Each well was then treated with 100 μL of stop/solubilization solution and agitated at 37° C. overnight. The absorbance of dissolved formazan was measured at 562 nm by a SpectraMax M3 microplate reader (Molecular Devices, Sunnyvale, Calif.).

Huh7 cells [5] = assay: Confocal imaging of cellular uptake; format: cell-based, human; conditions: 10 min, 3 h, 10 h, with or without chloroquine
Procedure: Huh7 were seeded in a 35 mm glass-bottomed dish (Mat Tek Corp., Ashland, Mass.) at a density of 100,000 cells per dish. At 70% confluence, the cells were treated with free Dox for 10 min or fluorescently labeled liposomes (*LRD, labeled with 25-NBD cholesterol) for 10 min, 3 h or 10 h. At each time point, the cells were rinsed twice with PBS. After nuclei staining with Hoechst 33342 ([…]) for 10 min, the cells were rinsed again with PBS and imaged in medium by a Nikon-A1R confocal microscope (Nikon America Inc., Melville, N.Y.). For selected treatments, chloroquine was added 12 h prior to the treatment. The cells were rinsed with PBS and incubated with the labeled liposomes for confocal imaging.

[6] = literature (Bornmann et al.); cited from earlier work
[7] = upon systemic administration; cited from earlier work

Q: What does the source list for `COc1cccc2c1C(=O)c1c(O)c3c(c(O)c1C2=O)C[C@@](O)(C(=O)CO)C[C@@H]3O[C@H]1C[C@H](N)[C@H](O)[C@H](C)O1.Cl` [Dox, Doxorubicin HCl]?
A: ionized/unionized ratio in the interior of liposomes [1]: 120,000; cellular uptake of Dox (Huh7 cells [2]): entering cells more efficiently than LRD; pKa [3]: 8.68; IC50 ([4]; 72 h incubation): 250 nM; cellular uptake and localisation by confocal microscope imaging (Huh7 cells [5]): appearing in the nuclei as early as in 10 min

Q: With `Nc1ccn([C@@H]2O[C@H](CO)[C@@H](O)C2(F)F)c(=O)n1` [Gem, Gemcitabine] as the molecule, how does the “reported maximum tolerated dose” value [6] read?
A: 16 mg/kg

Q: And the pKa [3]?
A: 3.6

Q: What about the half-life [7] of the same molecule?
A: 8 to 17 min

Q: What about the IC50 ([4]; Homo sapiens, Huh-7, 72 h incubation) of the same molecule?
A: 1600 nM
